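96-well plates; 48 h exposure; 5 concentrations. Endpoints by linear interpolation between flanking doses. Not reached: highest tested concentration assigned. Here, GI50 denotes the concentration required for 50% inhibition of growth.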 Activity calls are given as the source filed them. Rule as the data show it: active = GI50 up to about 1.1 µM and inactive = higher.
Key:
Assay in all cases: growth of human tumour cells (NCI), 48 h
[1] = tested on: U-251
[2] = tested on: NCI-H460
[3] = tested on: HT-29
[4] = tested on: LOX IMVI
[5] = tested on: OVCAR-4
[6] = tested on: UACC-62
[7] = tested on: A498
[8] = tested on: KM12
[9] = tested on: EKVX
[10] = tested on: CAKI-1
[11] = tested on: ACHN
[12] = tested on: TK-10
[13] = tested on: CCRF-CEM
[14] = tested on: COLO 205
[15] = tested on: HCT-116
[16] = tested on: RXF 393
[17] = tested on: 786-0
[18] = tested on: MCF7
[19] = tested on: Malme-3M
[20] = tested on: SF-539

Row | SMILES | GI50 [1] | GI50 [2] | GI50 [3] | GI50 [4] | GI50 [5] | GI50 [6] | GI50 [7] | GI50 [8] | GI50 [9] | GI50 [10] | GI50 [11] | GI50 [12] | GI50 [13] | GI50 [14] | GI50 [15] | GI50 [16] | GI50 [17] | GI50 [18] | GI50 [19] | GI50 [20]
1 | C=C(C)C1CC2=C(O1)C(=O)c1cccc(O)c1C2=O (stereo unspecified) | 1.43 µM (inactive) | 1.91 µM (inactive) | 1.59 µM (inactive) | 4.26 µM (inactive) | 0.327 µM (active) | 0.883 µM (active) | 5.46 µM (inactive) | 1.69 µM (inactive) | 1.17 µM (inactive) | 0.764 µM (active) | 1.72 µM (inactive) | 2.5 µM (inactive) | 0.209 µM (active) | 1.75 µM (inactive) | 10.9 µM (inactive) | 1.04 µM (active) | 9.12 µM (inactive) | 0.586 µM (active) | 1.08 µM (active) | 0.671 µM (active)
2 | c1cc2c(cc1C(N1CCNCC1)N1CCNCC1)OCO2 | > 100 µM (inactive) | > 100 µM (inactive) | > 100 µM (inactive) | > 100 µM (inactive) | > 100 µM (inactive) | > 100 µM (inactive) | > 100 µM (inactive) | > 100 µM (inactive) | > 100 µM (inactive) | > 100 µM (inactive) | > 100 µM (inactive) | > 100 µM (inactive) | – | > 100 µM (inactive) | > 100 µM (inactive) | > 100 µM (inactive) | > 100 µM (inactive) | > 100 µM (inactive) | > 100 µM (inactive) | > 100 µM (inactive)
3 | COc1ccc(OC)c([N+](=O)[O-])c1-c1nc2sc(C)cn2c1/C=N/N=C(N)N | 31.6 µM (inactive) | 29.6 µM (inactive) | 25.8 µM (inactive) | 70.1 µM (inactive) | 22.3 µM (inactive) | 22.7 µM (inactive) | 34.7 µM (inactive) | 20.5 µM (inactive) | 82.2 µM (inactive) | 28.7 µM (inactive) | 41 µM (inactive) | 20.6 µM (inactive) | 42.2 µM (inactive) | – | 39.5 µM (inactive) | 28.2 µM (inactive) | 44.3 µM (inactive) | 15.1 µM (inactive) | 19.1 µM (inactive) | 38.4 µM (inactive)
4 | CSc1cc(Cl)c(C)cc1S(=O)(=O)NC(=O)NNc1ccc(F)c(Cl)c1 | > 100 µM (inactive) | > 100 µM (inactive) | > 100 µM (inactive) | > 100 µM (inactive) | > 100 µM (inactive) | – | > 100 µM (inactive) | > 100 µM (inactive) | > 100 µM (inactive) | > 100 µM (inactive) | > 100 µM (inactive) | – | 54.3 µM (inactive) | > 100 µM (inactive) | > 100 µM (inactive) | > 100 µM (inactive) | > 100 µM (inactive) | > 100 µM (inactive) | > 100 µM (inactive) | > 100 µM (inactive)
5 | Cc1cc(N2CCOCC2)nc2ccc(Cc3ccc4nc(N5CCOCC5)cc(C)c4c3)cc12 | 26.7 µM (inactive) | 26.7 µM (inactive) | 18.7 µM (inactive) | 32.4 µM (inactive) | > 100 µM (inactive) | 45.8 µM (inactive) | 59.4 µM (inactive) | > 100 µM (inactive) | 20.7 µM (inactive) | > 100 µM (inactive) | 48.5 µM (inactive) | 29.4 µM (inactive) | – | 13.3 µM (inactive) | 21.9 µM (inactive) | 25.9 µM (inactive) | 32 µM (inactive) | 37.8 µM (inactive) | 51.1 µM (inactive) | 24.2 µM (inactive)
6 | CC(C)/C=N\N1C(N)=C(C#N)C(C#N)(C#N)C1C(C)C (stereo unspecified) | 39.6 µM (inactive) | – | 27.5 µM (inactive) | 31.8 µM (inactive) | 52.1 µM (inactive) | 26.4 µM (inactive) | 51.3 µM (inactive) | 44.6 µM (inactive) | > 100 µM (inactive) | 85.1 µM (inactive) | 65.3 µM (inactive) | > 100 µM (inactive) | 36.2 µM (inactive) | 48.1 µM (inactive) | 47.9 µM (inactive) | 17.2 µM (inactive) | 60.7 µM (inactive) | 55.5 µM (inactive) | > 100 µM (inactive) | 22.7 µM (inactive)
7 | C[n+]1c2ccccc2n2c3ccccc3c(NCCc3ccccn3)c(C#N)c21 | 1.68 µM (inactive) | 1.04 µM (active) | 2.99 µM (inactive) | 1.17 µM (inactive) | 0.804 µM (active) | 2.53 µM (inactive) | 4.4 µM (inactive) | 2.47 µM (inactive) | 4.06 µM (inactive) | 1.98 µM (inactive) | 1.49 µM (inactive) | 1.14 µM (inactive) | 1.25 µM (inactive) | 1.68 µM (inactive) | 0.933 µM (active) | 1.01 µM (active) | 1.58 µM (inactive) | 0.249 µM (active) | 2.81 µM (inactive) | 1.99 µM (inactive)
8 | CN(C)CCn1c(=O)nc2c3c(c([N+](=O)[O-])ccc31)Nc1ccc(O)cc1-2 | 1.53 µM (inactive) | 0.977 µM (active) | 0.959 µM (active) | 1.27 µM (inactive) | 9.68 µM (inactive) | 4.5 µM (inactive) | 6.32 µM (inactive) | 5.47 µM (inactive) | 8.04 µM (inactive) | 5.53 µM (inactive) | 3.44 µM (inactive) | 4.66 µM (inactive) | 0.948 µM (active) | 2.72 µM (inactive) | 1.57 µM (inactive) | 1.63 µM (inactive) | 1.67 µM (inactive) | 1.32 µM (inactive) | 3.67 µM (inactive) | 1.7 µM (inactive)
9 | Cc1cc(C)n(C(C)(C(=O)Cc2ccccc2)n2nc(C)cc2C)n1 | > 100 µM (inactive) | > 100 µM (inactive) | > 100 µM (inactive) | > 100 µM (inactive) | > 100 µM (inactive) | > 100 µM (inactive) | > 100 µM (inactive) | > 100 µM (inactive) | > 100 µM (inactive) | > 100 µM (inactive) | > 100 µM (inactive) | > 100 µM (inactive) | – | > 100 µM (inactive) | > 100 µM (inactive) | > 100 µM (inactive) | > 100 µM (inactive) | > 100 µM (inactive) | > 100 µM (inactive) | > 100 µM (inactive)
10 | Cc1cc2[nH]c(=NS(=O)(=O)c3cc(C)c(Cl)cc3S)[nH]c2cc1C | 36.2 µM (inactive) | 16.9 µM (inactive) | > 100 µM (inactive) | 28.9 µM (inactive) | > 100 µM (inactive) | > 100 µM (inactive) | > 100 µM (inactive) | 46.2 µM (inactive) | 24.1 µM (inactive) | > 100 µM (inactive) | 73.8 µM (inactive) | > 100 µM (inactive) | 21.4 µM (inactive) | > 100 µM (inactive) | 51.4 µM (inactive) | > 100 µM (inactive) | 61.7 µM (inactive) | 60.8 µM (inactive) | > 100 µM (inactive) | 68.9 µM (inactive)
11 | N=C(N)N/N=C/c1ccc(O)c(C(=O)O)c1 | > 100 µM (inactive) | > 100 µM (inactive) | 32.3 µM (inactive) | > 100 µM (inactive) | > 100 µM (inactive) | > 100 µM (inactive) | > 100 µM (inactive) | > 100 µM (inactive) | – | > 100 µM (inactive) | > 100 µM (inactive) | > 100 µM (inactive) | > 100 µM (inactive) | > 100 µM (inactive) | > 100 µM (inactive) | > 100 µM (inactive) | > 100 µM (inactive) | > 100 µM (inactive) | 99.1 µM (inactive) | > 100 µM (inactive)
12 | CC(C)(C)CC(C)(C)NC(=S)NO | – | > 100 µM (inactive) | > 100 µM (inactive) | > 100 µM (inactive) | > 100 µM (inactive) | > 100 µM (inactive) | > 100 µM (inactive) | > 100 µM (inactive) | > 100 µM (inactive) | > 100 µM (inactive) | > 100 µM (inactive) | > 100 µM (inactive) | > 100 µM (inactive) | > 100 µM (inactive) | > 100 µM (inactive) | > 100 µM (inactive) | > 100 µM (inactive) | > 100 µM (inactive) | > 100 µM (inactive) | > 100 µM (inactive)
13 | CCN(CC)CCNC(=O)c1ccc(C)c(OCc2ccccc2)c1[N+](=O)[O-] | 39.7 µM (inactive) | 36.6 µM (inactive) | 19.1 µM (inactive) | 22.5 µM (inactive) | 56.8 µM (inactive) | 20.7 µM (inactive) | 50 µM (inactive) | 39.9 µM (inactive) | 68.5 µM (inactive) | 20.7 µM (inactive) | 56.8 µM (inactive) | 61.2 µM (inactive) | 31.2 µM (inactive) | 16 µM (inactive) | 23 µM (inactive) | 52.5 µM (inactive) | 33.3 µM (inactive) | 22.3 µM (inactive) | 16.9 µM (inactive) | 33.7 µM (inactive)
14 | CNC(=S)N/N=C/c1cccc(C)n1 | 26.1 µM (inactive) | 19.9 µM (inactive) | 36 µM (inactive) | 24.7 µM (inactive) | > 59.7 µM (inactive) | 23.6 µM (inactive) | 20.7 µM (inactive) | 61.1 µM (inactive) | 46.6 µM (inactive) | 47.6 µM (inactive) | 28.2 µM (inactive) | 32.8 µM (inactive) | 23.4 µM (inactive) | 38.2 µM (inactive) | 31.6 µM (inactive) | 38.5 µM (inactive) | 24.6 µM (inactive) | 38.6 µM (inactive) | 37.2 µM (inactive) | 18.4 µM (inactive)

Reference: ChEMBL document CHEMBL1201862, “PubChem BioAssay data set” (2004)
